Changes are numbered by the printed parent chain.
Experiments:
[1] = test system: fibroblasts isolated from patients with cblC disease; assay: MMA in conditioned medium of cblC patient fibroblasts; type: cell-based, human
Excerpt: (§1) Cultured cells from control (healthy neonatal subjects) or cblC fibroblasts were supplemented without exogenous Cbl (negative control), with commercial CNCbl (current therapy control) or with the newly synthesized cobalamins (test group). The ability of these compounds to support intracellular Cbl metabolism in the absence of CblC was examined by monitoring disease biomarker metabolites Hcy and MMA levels in the conditioned medium.
(§2) The cellular response to treatment with new derivatives CyaCbl and MPGCbl in comparison with current therapeutic form CNCbl was measured. The ability of the new cobalamin derivatives CyaCbl and MPGCbl to achieve metabolic control, i.e. reduction of for example MMA production by cblC fibroblasts in culture, was examined as described in previously published experimental protocols. FIG. 13 provides a comparison of the effect of CNCbl (0.001 mM) versus the same dose of CyaCbl or MPGCbl given to cultured fibroblasts from healthy subjects (HFF, NHDF, PCS, Wiesel, Control) or from cblC patients (WG1801, WG2176, WG3354, GM10011, GM02345B, GM02452C).
(§3) Additional examination of the effect of thiolatocobalamins CyaCbl and MPGCbl and sulfur-containing alkylcobalamin Me-S-MeCbl with respect to structural analogues that are NOT available for therapy was also carried out, for comparative purposes. The results of cellular response (healthy controls and cblC patient fibroblasts) to cobalamin treatment, as reflected by MMA levels is provided in Table 6.

[2] = UV-visible spectrum of purified cobalamin in water (base-off configuration without CblC); type: physicochemical; conditions: after acetone precipitation and vacuum filtration
[3] = test system: fibroblasts from healthy subjects; assay: MMA in conditioned medium of control fibroblasts; type: cell-based, human
Excerpt: as §1, §2, §3

cultured fibroblasts = assay: Cytotoxicity and cellular transport observed in cultured fibroblast experiments; type: cell-based, human
[4] = target: T1, human recombinant CblC wild type (Homo sapiens, UniProt Q9Y4U1); type: biochemical
T1 sequence (Q9Y4U1 1-282): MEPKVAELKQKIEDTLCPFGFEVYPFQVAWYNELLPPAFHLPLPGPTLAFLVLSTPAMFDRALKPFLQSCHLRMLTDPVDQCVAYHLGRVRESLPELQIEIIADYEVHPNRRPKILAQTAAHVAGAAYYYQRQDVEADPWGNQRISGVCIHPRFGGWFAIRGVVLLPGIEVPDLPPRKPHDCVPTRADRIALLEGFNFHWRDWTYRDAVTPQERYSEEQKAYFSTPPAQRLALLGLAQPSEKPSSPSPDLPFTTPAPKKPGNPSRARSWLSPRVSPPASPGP
Experimental: (§4) The ability of the newly synthesized Cbl derivatives to serve as substrates for CblC was examined (FIG. 12). CblC activity was measured by UV-visible spectroscopy according to published procedures. Analysis of reaction products was performed by mass spectrometry. We measured dealkylation and de-thiolation of Co—C and Co—S bonded Cbl derivatives, respectively, by wild type and mutant CblC proteins to determine whether these reactions could be supported in patients harboring an abnormal isoform of CblC with low or no enzymatic activity.
The enzymatic activity of CblC in the presence of CyaCbl and MPGCbl as substrates was evaluated under the same experimental conditions utilized to examine dealkylation of MeCbl and AdoCbl. […] The reaction was complete in less than 10 seconds, which is the time it takes to record the first spectrum after mixing of CblC-bound to CyaCbl or MPGCbl with 5 mM GSH (FIG. 12).
(§5) First, the ability of novel cobalamins described herein was tested to act as substrate for wild type CblC and to restore the lost activity of pathogenic variants, such as mutant Arg161Gly, that leads to early-onset form of the cblC disease.

[5] = Concentration-dependent reaction rate of aquacobalamin with thiol ligand forming thiolatocobalamin (time-resolved UV-visible spectroscopy); type: physicochemical; conditions: pH 7.2, l = 1, sodium triflate
Experimental: The UV-visible spectra of newly synthesized cobalamin derivatives was determined in EPPS buffer (40 mM, pH 7.6, l=1.0 M with sodium triflate). The reaction of aquacobalamin with cysteamine and mercaptopropionylglycine was monitored by time-resolved spectral scanning of reactions containing a fixed amount of aquacobalamin (10-25 μM (micromolar)) and various concentrations of the ligand.
Mercaptopropionylglycine reacted readily with aquacobalamin to form a stable MPGCbl complex at pH 7.2.
A fixed concentration of aquacobalamin was reacted with varying concentrations of the ligand MPG. The reaction was monitored by time-resolved UV-visible spectroscopy for a total of 50 minutes (FIG. 5). The spectral changes were consistent with the conversion of aquacobalamin into MPGCbl (FIG. 5 a) via a mechanism that involves no detectable reaction intermediates. Initial and final spectra are analyzed to confirm the identity of the thiolatocobalamin product (FIG. 5 b). Time courses were generated at the absorption maxima of each species (350 nm, H2OCbl^+, and 372 nm, MPGCbl) (FIG. 5 c).

[6] = target: T2, human recombinant CblC pathogenic mutant Arg161Gly (Homo sapiens, UniProt Q9Y4U1, R161G); type: biochemical
T2 sequence (Q9Y4U1 1-282 R161G): T1 sequence (Q9Y4U1 1-282) with R161G
Experimental: as §4, §5

[7] = target: T1, human recombinant CblC wild type; type: biochemical; conditions: dethiolation; 50 μM GSH
human wild type CblC = target: T3, human wild type CblC (Homo sapiens, UniProt Q9Y4U1); assay: Binding to CblC and conversion to base-off configuration (UV-visible spectrophotometry); conditions: pH 7.6, EPPS buffer 0.04 M
T3 sequence (Q9Y4U1 1-282): T1 sequence (Q9Y4U1 1-282)
Experimental: An important aspect for the bioactivity of the new compounds is their ability to bind to the processing enzyme CblC, and to undergo conversion to the base-off configuration, which enhances their reactivity. This is a critical step in all intracellular pathways of vitamin B12 metabolism that are involved in pathogenesis, and certainly, relevant to the cblC disease itself. […] Binding studies were conducted at pH 7.6 (EPPS buffer, 0.04 M) and analyzed by UV-visible spectrophotometry.

Q: Which “Reduction of MMA to the levels of healthy fibroblasts, compared with CNCbl” value ([1]; 0.001 mM, same dose as CNCbl, FIG. 13) does the source give for `CC([S][Co+2])C(=O)NCC(=O)O.CC1=C2N=C(C=C3N=C(C(C)=C4[N-]C(C(CC(N)=O)C4(C)CCC(=O)NCC(C)OP(=O)([O-])OC4C(CO)OC(n5cnc6cc(C)c(C)cc65)C4O)C4(C)N=C1C(CCC(N)=O)C4(C)CC(N)=O)C(CCC(N)=O)C3(C)C)C(CCC(N)=O)C2(C)CC(N)=O` (stereo not drawn) [MPGCbl] here?
A: far superior compared to CNCbl

Q: What about the “MMA in conditioned medium” value ([1]; GM02345B cblC fibroblasts, after 7 days) of the same molecule?
A: 0.182 μmol/mg protein

Q: What about the “MMA in conditioned medium” value ([1]; GM02452C cblC fibroblasts, after 7 days) of the same molecule?
A: 0.190 μmol/mg protein

Q: And the “MMA in conditioned medium” value ([1]; GM10011 cblC fibroblasts, after 7 days)?
A: 0.087 μmol/mg protein

Q: And the “MMA in conditioned medium” value ([1]; WG1801 cblC fibroblasts, after 7 days)?
A: 0.212 μmol/mg protein

Q: What about the “MMA in conditioned medium” value ([1]; WG2176 cblC fibroblasts, after 7 days) of the same molecule?
A: 0.216 μmol/mg protein

Q: What about the “MMA in conditioned medium” value ([1]; WG3354 cblC fibroblasts, after 7 days) of the same molecule?
A: 0.183 μmol/mg protein

Q: And the “MMA in conditioned medium” value ([1]; cblC patients (group value), after 7 days)?
A: 0.178 μmol/mg protein

Q: And the “MMA in conditioned medium” value ([1]; cblC patients, after 7 days wash-off period without supplemental cobalamin)?
A: 0.185 μmol/mg protein

Q: And the “Configuration in the absence of the CblC protein” value [2]?
A: at least a fraction of this Cbl derivative may exist in its base-off configuration

Q: And the “MMA in conditioned medium” value ([3]; Controls (group value), after 7 days)?
A: 0.120 μmol/mg protein

Q: What about the “MMA in conditioned medium” value ([3]; Controls, after 7 days wash-off period without supplemental cobalamin) of the same molecule?
A: 0.121 μmol/mg protein

Q: What about the “MMA in conditioned medium” value ([3]; HFF control fibroblasts, after 7 days) of the same molecule?
A: 0.116 μmol/mg protein

Q: And the “MMA in conditioned medium” value ([3]; NHDF control fibroblasts, after 7 days)?
A: 0.096 μmol/mg protein

Q: And the “MMA in conditioned medium” value ([3]; Wiezel control fibroblasts, after 7 days)?
A: 0.148 μmol/mg protein

Q: And the “Transport into the cells” value (cultured fibroblasts; canonical TC transporter and its cellular receptor CD320)?
A: transported successfully into the cells

Q: What about the Cytotoxicity (cultured fibroblasts; under the experimental conditions of the fibroblast cultures) of the same molecule?
A: not cytotoxic

Q: What about the “Product of the reaction” value ([4]; cobalamin bound to human CblC, in the presence of GSH) of the same molecule?
A: H2OCbl^+

Q: And the “Half-life of beta-axial ligand removal, Wild type CblC” value ([4]; human, pH 7.6)?
A: <0.5 min

Q: And the “K, concentration-dependent reaction rate (formation from aquacobalamin)” value [5]?
A: 39.71 M⁻¹ s⁻¹

Q: And the “Product under ambient conditions, Mutant Arg161Gly” value ([6]; dethiolation, 50 μM GSH)?
A: H2OCbl

Q: And the “Half-life of beta-axial ligand removal, Mutant Arg161Gly” value ([6]; human, pH 7.6)?
A: 1.5 min

Q: And the “Product under ambient conditions, Wild type CblC” value [7]?
A: H2OCbl

Q: And the “Effect of binding to human wild type CblC on configuration” value (human wild type CblC)?
A: induces their base-off configuration

— US11384113B2, “Cobalamin derivatives and their use for the treatment of diseases caused by lack of vitamin B12 supply” (Albert-Ludwigs-Universitaet Freiburg, priority 2017, dated 2022)
